In patent US11285219B2, “Peptide-oligourea hybrid compounds” (UREKA SARL, priority 2019, dated 2022):
Numbered stars: 1 amine (or outer) side, 2 acyl side, 3 side chain; on linkers, the order of the positions; unused ones are H or OH. Bridge positions count the residues as written; N and C are the ends. Peptide text beside a SMILES is read from it. I, II: the chains in the order shown. X1 = C[C@@H](CNC(=O)N[C@@H](C)CNC(=O)[*:2])NC(=O)NC[C@H](C)N[*:1]; X7 = C[C@@H](CNC(=O)N[C@@H](C)CNC(=O)[*:1])NC(=O)NC[C@H](C)N[*:2]; X6 = CC(CNC(=O)NC(C)CNC(=O)[*:1])NC(=O)NCC(C)N[*:2]; X8 = CC(CNC(=O)NC(C)CNC(=O)[*:2])NC(=O)NCC(C)N[*:1]

Target: T1, mouse GLP-1 receptor endogenously expressed in βTC6 cells (Mus musculus, UniProt O35659)
T1 construct: host or cells: βTC6 cells
T1 sequence (O35659 22-463): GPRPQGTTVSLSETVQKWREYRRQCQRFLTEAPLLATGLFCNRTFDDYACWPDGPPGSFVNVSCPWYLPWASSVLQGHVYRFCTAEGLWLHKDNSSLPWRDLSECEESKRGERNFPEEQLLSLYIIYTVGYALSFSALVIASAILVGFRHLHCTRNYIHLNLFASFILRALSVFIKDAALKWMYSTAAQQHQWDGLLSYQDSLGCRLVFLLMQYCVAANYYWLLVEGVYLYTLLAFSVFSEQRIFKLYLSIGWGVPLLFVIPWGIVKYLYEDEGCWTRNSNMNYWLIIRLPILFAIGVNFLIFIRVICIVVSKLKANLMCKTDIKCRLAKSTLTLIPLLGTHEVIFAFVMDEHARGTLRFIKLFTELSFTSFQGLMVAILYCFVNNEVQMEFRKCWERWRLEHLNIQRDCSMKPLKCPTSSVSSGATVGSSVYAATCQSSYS
Assay: cAMP production functional assay (HTRF), agonist activity at GLP-1R
Assay type: cell-based
Details: cAMP production; Table 1
Experimental: The agonistic activity of these hybrids were obtained by functional assays using cells expressing the […] and by measuring the receptor-mediated cAMP produced (see supporting information).
In vitro pharmacology (EC50). […] Following incubation, the cells were lysed and the fluorescence acceptor (D2-labeled cAMP) and fluorescence donor (anti-cAMP antibody labeled with europium cryptate) were added.

Row | Compound | Potency (%), percentage of potency compare to GLP-1-G^2
1 | CC[C@H](C)[C@H](NC(=O)[C@H](Cc1ccccc1)NC(=O)[C@H](CCC(=O)O)NC(=O)[C@H](CCCCN)NC(=O)[C@H](C)NC(=O)[C@H](C)NC(=O)[C@H](CCC(N)=O)NC(=O)CNC(=O)NCC(C)NC(=O)NCC(C)NC(=O)NCC(C)NC(=O)[C@H](CO)NC(=O)[C@@H](NC(=O)[C@H](CC(=O)O)NC(=O)[C@H](CO)NC(=O)[C@@H](NC(=O)[C@H](Cc1ccccc1)NC(=O)[C@@H](NC(=O)CNC(=O)[C@H](CCC(=O)O)NC(=O)CNC(=O)[C@@H](N)Cc1c[nH]cn1)[C@@H](C)O)[C@@H](C)O)C(C)C)C(=O)N[C@@H](C)C(=O)N[C@@H](Cc1c[nH]c2ccccc12)C(=O)N[C@@H](CC(C)C)C(=O)N[C@H](C(=O)N[C@@H](CCCCN)C(=O)NCC(=O)N[C@@H](CCCNC(=N)N)C(=O)NCC(N)=O)C(C)C (stereo partly drawn) [Compound 6, GG2[A^UA^UA^U]^12-15] (I: GQAAKEFIAWLVKGRG-NH2 / II: H-HGEGTFTSDVS; linker I:N-II:C via X6) | <0.01%
2 | CC[C@H](C)[C@H](NC(=O)[C@H](Cc1ccccc1)NC(=O)[C@H](CCC(=O)O)NC(=O)[C@H](CCCCN)NC(=O)[C@H](C)NC(=O)[C@H](C)NC(=O)[C@H](CCC(N)=O)NC(=O)CNC(=O)[C@H](CCC(=O)O)NC(=O)NC[C@H](C)NC(=O)NC[C@H](C)NC(=O)NC[C@H](C)NC(=O)[C@@H](NC(=O)[C@H](CC(=O)O)NC(=O)[C@H](CO)NC(=O)[C@@H](NC(=O)[C@H](Cc1ccccc1)NC(=O)[C@@H](NC(=O)CNC(=O)[C@H](CCC(=O)O)NC(=O)CNC(=O)[C@@H](N)Cc1c[nH]cn1)[C@@H](C)O)[C@@H](C)O)C(C)C)C(=O)N[C@@H](C)C(=O)N[C@@H](Cc1c[nH]c2ccccc12)C(=O)N[C@@H](CC(C)C)C(=O)N[C@H](C(=O)N[C@@H](CCCCN)C(=O)NCC(=O)N[C@@H](CCCNC(=N)N)C(=O)NCC(N)=O)C(C)C [Compound 4, GG2[A^UA^UA^U]^11-14] (I: EGQAAKEFIAWLVKGRG-NH2 / II: H-HGEGTFTSDV; linker I:N-II:C via X7) | 0.2%
3 | CC[C@H](C)[C@H](NC(=O)[C@H](Cc1ccccc1)NC(=O)[C@H](CCC(=O)O)NC(=O)[C@H](CCCCN)NC(=O)[C@H](C)NC(=O)[C@H](C)NC(=O)[C@H](CCC(N)=O)NC(=O)NCC(C)NC(=O)NCC(C)NC(=O)NCC(C)NC(=O)[C@H](CO)NC(=O)[C@H](CO)NC(=O)[C@@H](NC(=O)[C@H](CC(=O)O)NC(=O)[C@H](CO)NC(=O)[C@@H](NC(=O)[C@H](Cc1ccccc1)NC(=O)[C@@H](NC(=O)CNC(=O)[C@H](CCC(=O)O)NC(=O)CNC(=O)[C@@H](N)Cc1c[nH]cn1)[C@@H](C)O)[C@@H](C)O)C(C)C)C(=O)N[C@@H](C)C(=O)N[C@@H](Cc1c[nH]c2ccccc12)C(=O)N[C@@H](CC(C)C)C(=O)N[C@H](C(=O)N[C@@H](CCCCN)C(=O)NCC(=O)N[C@@H](CCCNC(=N)N)C(=O)NCC(N)=O)C(C)C (stereo partly drawn) [Compound 7, GG2[A^UA^UA^U]^13-16] (I: QAAKEFIAWLVKGRG-NH2 / II: H-HGEGTFTSDVSS; linker I:N-II:C via X6) | <0.01%
4 | CC[C@H](C)[C@H](NC(=O)[C@H](Cc1ccccc1)NC(=O)[C@H](CCC(=O)O)NC(=O)[C@H](CCCCN)NC(=O)[C@H](C)NC(=O)[C@H](C)NC(=O)[C@H](CCC(N)=O)NC(=O)CNC(=O)[C@H](CCC(=O)O)NC(=O)[C@H](CC(C)C)NC(=O)[C@H](Cc1ccc(O)cc1)NC(=O)[C@H](CO)NC(=O)[C@H](CO)NC(=O)[C@@H](NC(=O)[C@H](CC(=O)O)NC(=O)[C@H](CO)NC(=O)[C@@H](NC(=O)[C@H](Cc1ccccc1)NC(=O)[C@@H](NC(=O)CNC(=O)[C@H](CCC(=O)O)NC(=O)CNC(=O)[C@@H](N)Cc1c[nH]cn1)[C@@H](C)O)[C@@H](C)O)C(C)C)C(=O)NC(C)CNC(=O)NC(C)CNC(=O)NC(C)CNC(=O)N[C@@H](CCCCN)C(=O)NCC(=O)N[C@@H](CCCNC(=N)N)C(=O)NCC(N)=O (stereo partly drawn) [Compound 18, GG2[A^UA^UA^U]^24-27] | <0.01%
5 | CC[C@H](C)[C@H](NC(=O)[C@H](Cc1ccccc1)NC(=O)[C@H](CCC(=O)O)NC(=O)[C@H](CCCCN)NC(=O)NC[C@H](C)NC(=O)NC[C@H](C)NC(=O)NC[C@H](C)NC(=O)[C@H](CCC(=O)O)NC(=O)[C@H](CC(C)C)NC(=O)[C@H](Cc1ccc(O)cc1)NC(=O)[C@H](CO)NC(=O)[C@H](CO)NC(=O)[C@@H](NC(=O)[C@H](CC(=O)O)NC(=O)[C@H](CO)NC(=O)[C@@H](NC(=O)[C@H](Cc1ccccc1)NC(=O)[C@@H](NC(=O)CNC(=O)[C@H](CCC(=O)O)NC(=O)CNC(=O)[C@@H](N)Cc1c[nH]cn1)[C@@H](C)O)[C@@H](C)O)C(C)C)C(=O)N[C@@H](C)C(=O)N[C@@H](Cc1c[nH]c2ccccc12)C(=O)N[C@@H](CC(C)C)C(=O)N[C@H](C(=O)N[C@@H](CCCCN)C(=O)NCC(=O)N[C@@H](CCCNC(=N)N)C(=O)NCC(N)=O)C(C)C [Compound 12, GG2[A^UA^UA^U]^16-19] | 0.1%
6 | CC[C@H](C)[C@H](NC(=O)[C@H](Cc1ccccc1)NC(=O)[C@H](CCC(=O)O)NC(=O)NC[C@H](C)NC(=O)NC[C@H](C)NC(=O)NC[C@H](C)NC(=O)CNC(=O)[C@H](CCC(=O)O)NC(=O)[C@H](CC(C)C)NC(=O)[C@H](Cc1ccc(O)cc1)NC(=O)[C@H](CO)NC(=O)[C@H](CO)NC(=O)[C@@H](NC(=O)[C@H](CC(=O)O)NC(=O)[C@H](CO)NC(=O)[C@@H](NC(=O)[C@H](Cc1ccccc1)NC(=O)[C@@H](NC(=O)CNC(=O)[C@H](CCC(=O)O)NC(=O)CNC(=O)[C@@H](N)Cc1c[nH]cn1)[C@@H](C)O)[C@@H](C)O)C(C)C)C(=O)N[C@@H](C)C(=O)N[C@@H](Cc1c[nH]c2ccccc12)C(=O)N[C@@H](CC(C)C)C(=O)N[C@H](C(=O)N[C@@H](CCCCN)C(=O)NCC(=O)N[C@@H](CCCNC(=N)N)C(=O)NCC(N)=O)C(C)C [Compound 13, GG2[A^UA^UA^U]^17-20] | 0.01%
7 | CC[C@H](C)[C@H](NC(=O)[C@H](Cc1ccccc1)NC(=O)[C@H](CCC(=O)O)NC(=O)[C@H](CCCCN)NC(=O)[C@H](C)NC(=O)NC[C@H](C)NC(=O)NC[C@H](C)NC(=O)NC[C@H](C)NC(=O)[C@H](CC(C)C)NC(=O)[C@H](Cc1ccc(O)cc1)NC(=O)[C@H](CO)NC(=O)[C@H](CO)NC(=O)[C@@H](NC(=O)[C@H](CC(=O)O)NC(=O)[C@H](CO)NC(=O)[C@@H](NC(=O)[C@H](Cc1ccccc1)NC(=O)[C@@H](NC(=O)CNC(=O)[C@H](CCC(=O)O)NC(=O)CNC(=O)[C@@H](N)Cc1c[nH]cn1)[C@@H](C)O)[C@@H](C)O)C(C)C)C(=O)N[C@@H](C)C(=O)N[C@@H](Cc1c[nH]c2ccccc12)C(=O)N[C@@H](CC(C)C)C(=O)N[C@H](C(=O)N[C@@H](CCCCN)C(=O)NCC(=O)N[C@@H](CCCNC(=N)N)C(=O)NCC(N)=O)C(C)C [Compound 10, GG2[A^UA^UA^U]^15-18] (I: H-HGEGTFTSDVSSYL / II: AKEFIAWLVKGRG-NH2; linker I:C-II:N via X1) | 0.2%
8 | CC(C)C[C@H](NC(=O)[C@H](Cc1ccc(O)cc1)NC(=O)[C@H](CO)NC(=O)[C@H](CO)NC(=O)[C@@H](NC(=O)[C@H](CC(=O)O)NC(=O)[C@H](CO)NC(=O)[C@@H](NC(=O)[C@H](Cc1ccccc1)NC(=O)[C@@H](NC(=O)CNC(=O)[C@H](CCC(=O)O)NC(=O)CNC(=O)[C@@H](N)Cc1c[nH]cn1)[C@@H](C)O)[C@@H](C)O)C(C)C)C(=O)N[C@@H](CCC(=O)O)C(=O)NCC(=O)N[C@@H](CCC(N)=O)C(=O)N[C@@H](C)C(=O)N[C@@H](C)C(=O)N[C@@H](CCCCN)C(=O)N[C@@H](CCC(=O)O)C(=O)N[C@@H](Cc1ccccc1)C(=O)N[C@@H](C)CNC(=O)N[C@@H](C)CNC(=O)N[C@@H](C)CNC(=O)N[C@H](C(=O)N[C@@H](CCCCN)C(=O)NCC(=O)N[C@@H](CCCNC(=N)N)C(=O)NCC(N)=O)C(C)C [Compound 17, GG2[A^UA^UA^U]^23-26] | 0.01%
9 | CC[C@H](C)[C@H](NC(=O)NCC(C)NC(=O)NCC(C)NC(=O)NCC(C)NC(=O)[C@H](C)NC(=O)[C@H](CCC(N)=O)NC(=O)CNC(=O)[C@H](CCC(=O)O)NC(=O)[C@H](CC(C)C)NC(=O)[C@H](Cc1ccc(O)cc1)NC(=O)[C@H](CO)NC(=O)[C@H](CO)NC(=O)[C@@H](NC(=O)[C@H](CC(=O)O)NC(=O)[C@H](CO)NC(=O)[C@@H](NC(=O)[C@H](Cc1ccccc1)NC(=O)[C@@H](NC(=O)CNC(=O)[C@H](CCC(=O)O)NC(=O)CNC(=O)[C@@H](N)Cc1c[nH]cn1)[C@@H](C)O)[C@@H](C)O)C(C)C)C(=O)N[C@@H](C)C(=O)N[C@@H](Cc1c[nH]c2ccccc12)C(=O)N[C@@H](CC(C)C)C(=O)N[C@H](C(=O)N[C@@H](CCCCN)C(=O)NCC(=O)N[C@@H](CCCNC(=N)N)C(=O)NCC(N)=O)C(C)C (stereo partly drawn) [Compound 15, GG2[A^UA^UA^U]^19-22] (I: H-HGEGTFTSDVSSYLEGQA / II: IAWLVKGRG-NH2; linker I:C-II:N via X8) | <0.01%
